Measured values published in PubChem BioAssay (NCI).
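Values below derive from 48-hour exposures of cells grown in 96-well plates, with endpoints linearly interpolated between the two concentrations bracketing the appropriate inhibition level. TGI is the concentration that stops growth completely.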

Legend:
Assay in all cases: growth of human tumour cells (NCI), 48 h
[1] = system: 786-0 renal
[2] = system: A498 renal
[3] = system: A549 NSCLC
[4] = system: ACHN renal
[5] = system: BT-549 breast
[6] = system: CAKI-1 renal
[7] = system: CCRF-CEM leukemia
[8] = system: COLO 205 colon
[9] = system: DU-145 prostate
[10] = system: EKVX NSCLC
[11] = system: HCC-2998 colon
[12] = system: HCT-116 colon
[13] = system: HCT-15 colon
[14] = system: HL-60(TB) leukemia
[15] = system: HOP-62 NSCLC
[16] = system: HOP-92 NSCLC
[17] = system: HT29 colon
[18] = system: IGROV1 ovarian
[19] = system: K-562 leukemia
[20] = system: KM12 colon
[21] = system: LOX IMVI melanoma
[22] = system: M14 melanoma
[23] = system: MCF7 breast
[24] = system: MDA-MB-231 breast
[25] = system: MDA-MB-435
[26] = system: MDA-N
[27] = system: MOLT-4 leukemia
[28] = system: NCI-H226 lung
[29] = system: NCI-H23 lung
[30] = system: NCI-H460 lung
[31] = system: NCI/ADR-RES ovarian
[32] = system: OVCAR-3 ovarian
[33] = system: OVCAR-4 ovarian
[34] = system: OVCAR-5 ovarian
[35] = system: OVCAR-8 ovarian
[36] = system: PC-3 prostate
[37] = system: RPMI-8226 leukemia
[38] = system: SF-295 CNS
[39] = system: SF-539 CNS
[40] = system: SK-MEL-2 melanoma
[41] = system: SK-MEL-28 melanoma
[42] = system: SK-MEL-5 melanoma
[43] = system: SK-OV-3 ovarian
[44] = system: SN12C renal
[45] = system: SNB-19 CNS
[46] = system: SR leukemia
[47] = system: SW-620 colon
[48] = system: TK-10 renal
[49] = system: U251 CNS
[50] = system: UACC-257 melanoma
[51] = system: UACC-62 melanoma
[52] = system: UO-31 renal
[53] = system: NCI-H522 lung
[54] = system: SF-268 CNS
[55] = system: SNB-75 CNS
[56] = system: T-47D breast

CS(=O)(=O)OCOS(C)(=O)=O
TGI [1]: > 100 µM | TGI [2]: > 100 µM | TGI [3]: > 100 µM | TGI [4]: > 100 µM | TGI [5]: > 100 µM | TGI [6]: > 100 µM | TGI [7]: 44.5 µM | TGI [8]: > 100 µM | TGI [9]: > 100 µM | TGI [10]: > 100 µM | TGI [11]: > 100 µM | TGI [12]: > 100 µM | TGI [13]: > 100 µM | TGI [14]: > 100 µM | TGI [15]: > 100 µM | TGI [16]: > 100 µM | TGI [17]: > 100 µM | TGI [18]: > 100 µM | TGI [19]: > 100 µM | TGI [20]: > 100 µM | TGI [21]: > 100 µM | TGI [22]: > 100 µM | TGI [23]: > 100 µM | TGI [24]: > 100 µM | TGI [25]: > 100 µM | TGI [26]: > 100 µM | TGI [27]: > 100 µM | TGI [28]: > 100 µM | TGI [29]: > 100 µM | TGI [30]: > 100 µM | TGI [31]: > 100 µM | TGI [32]: > 100 µM | TGI [33]: > 100 µM | TGI [34]: > 100 µM | TGI [35]: > 100 µM | TGI [36]: > 100 µM | TGI [37]: > 100 µM | TGI [38]: > 100 µM | TGI [39]: > 100 µM | TGI [40]: > 100 µM | TGI [41]: > 100 µM | TGI [42]: > 100 µM | TGI [43]: > 100 µM | TGI [44]: > 100 µM | TGI [45]: > 100 µM | TGI [46]: 47.9 µM | TGI [47]: > 100 µM | TGI [48]: > 100 µM | TGI [49]: > 100 µM | TGI [50]: > 100 µM | TGI [51]: > 100 µM | TGI [52]: > 100 µM

COc1cccc(-c2nc(-c3cnccn3)n(C3OC(CO)C(O)C3O)n2)c1 (configuration not stated)
TGI [1]: > 100 µM | TGI [3]: > 100 µM | TGI [5]: > 100 µM | TGI [7]: > 100 µM | TGI [8]: > 100 µM | TGI [9]: > 100 µM | TGI [10]: > 100 µM | TGI [11]: > 100 µM | TGI [12]: > 100 µM | TGI [13]: > 100 µM | TGI [14]: > 100 µM | TGI [15]: > 100 µM | TGI [16]: > 100 µM | TGI [17]: > 100 µM | TGI [18]: > 100 µM | TGI [19]: > 100 µM | TGI [20]: > 100 µM | TGI [21]: > 100 µM | TGI [22]: > 100 µM | TGI [23]: > 100 µM | TGI [24]: > 100 µM | TGI [25]: > 100 µM | TGI [26]: > 100 µM | TGI [27]: > 100 µM | TGI [29]: > 100 µM | TGI [30]: > 100 µM | TGI [53]: > 100 µM | TGI [31]: > 100 µM | TGI [32]: > 100 µM | TGI [33]: > 100 µM | TGI [34]: > 100 µM | TGI [35]: > 100 µM | TGI [36]: > 100 µM | TGI [54]: > 100 µM | TGI [38]: > 100 µM | TGI [39]: > 100 µM | TGI [41]: > 100 µM | TGI [42]: > 100 µM | TGI [43]: > 100 µM | TGI [44]: > 100 µM | TGI [45]: > 100 µM | TGI [55]: > 100 µM | TGI [46]: > 100 µM | TGI [47]: > 100 µM | TGI [56]: > 100 µM | TGI [48]: > 100 µM | TGI [49]: > 100 µM | TGI [50]: > 100 µM | TGI [51]: > 100 µM | TGI [52]: > 100 µM
